Test results from publication PMC6273991, “Cytotoxic Labdane Diterpenes from Hedychium ellipticum Buch.-Ham. ex Sm” (Molecules, 2016).
pIC50: −log10 of the molar value. In brackets after ≈: the same amount, converted by molar mass. Several values for one entry are separate records, joined by “and”; a condition that tells them apart may be missing. Equal values may be shown once. Read-outs that look alike come from different tables or passages of the source.

Legend:
[1] = tested on: Mycobacterium tuberculosis H37Ra; experiment: Antimycobacterial activity, green fluorescent protein microplate assay (GFPMA); type: cell-based; settings: M. tuberculosis H37Ra, MIC = lowest concentration effecting inhibition of ≥90%; for MIC: Mycobacterium tuberculosis, read-out: Anti-TB (MIC)
Procedure: The antimycobacterial activity was assessed against Mycobacterium tuberculosis H37Ra using the green fluorescent protein microplate assay (GFPMA). The lowest drug concentration effecting and inhibition of ≥90% was considered the MIC.

[2] = tested on: human small cell lung cancer cell (NCI-H187); experiment: Cytotoxicity, resazurin microplate assay (REMA), NCI-H187; settings: for IC50: Homo sapiens, NCI-H187, 120 h, read-out: Cytotoxicity (IC50) NCI-H187; for Selectivity Index NCI-H187: IC50 on Vero cells divided by IC50 for NCI-H187 cells
[3] = tested on: human oral cavity cancer cell (KB); experiment: Cytotoxicity, resazurin microplate assay (REMA), KB; settings: for IC50 / pIC50: Homo sapiens, KB, 120 h, read-out: Cytotoxicity (IC50) KB, KB cells, REMA, 5 days; for pIC50: value in parentheses; for Selectivity Index KB: IC50 on Vero cells divided by IC50 for KB cells; for Cytotoxicity (IC50) KB: KB cells, REMA, 5 days
[4] = tested on: human breast cancer cell (MCF7); experiment: Cytotoxicity, resazurin microplate assay (REMA), MCF7; settings: for IC50: Homo sapiens, MCF7, 120 h, read-out: Cytotoxicity (IC50) MCF7; for Cytotoxicity (IC50) MCF7: MCF7 cells, REMA, 5 days; for Selectivity Index MCF7: IC50 on Vero cells divided by IC50 for MCF7 cells
[5] = tested on: African green monkey kidney (Vero) cell line; experiment: Cytotoxicity against non-cancerous cells, GFP detection; settings: 4 days, Undetectable = at concentration ≤50 μg/mL
in vitro = settings: African green monkey, Vero cells (African green monkey kidney, non-cancerous)
A-549 cell line = tested on: A-549 cell line; design: method as in PMID 21106458; settings: read-out: LC50 A-549 cell line; cited from earlier work
SK-N-SH cells = tested on: SK-N-SH cells; design: method as in PMID 21106458; settings: read-out: LC50 SK-N-SH cells; cited from earlier work
V-79 cell = tested on: V-79 cell; design: method as in PMID 3222377, PMID 21106458; settings: cited from earlier work
HeLa cells = tested on: HeLa cells; design: method as in PMID 21106458; settings: cited from earlier work
NCI-H187 cell = settings: cited from earlier work
KB cell = tested on: KB cell; design: method as in PMID 18932088; settings: cited from earlier work
MCF-7 cells = tested on: MCF-7 cells; design: method as in PMID 21106458; settings: read-out: LC50 MCF-7 cells; cited from earlier work
P388 cells = tested on: P388 cells; design: method as in PMID 9873721; settings: cited from earlier work
B16 cells = tested on: B16 cells; design: method as in PMID 9873721; settings: cited from earlier work
SNU-1 cells = tested on: SNU-1 cells; design: method as in PMID 9873721; settings: cited from earlier work

Row | SMILES | Anti-TB (MIC) [1] | MIC [1] [µg/mL] | IC50 [2] | IC50 [3] [µg/mL] | pIC50 [3] | IC50 [4] | IC50 at 4 days (in vitro) | Selectivity Index NCI-H187 [2] | Selectivity Index KB [3] | further results
1 | CC1COc2c(N3CCN(C)CC3)c(F)cc3c(=O)c(C(=O)O)cn1c23 (stereo not drawn) [oflaxacin, reference compound] | 0.391 to 0.781 µg/mL | – | – | – | – | – | – | – | – | –
2 | NNC(=O)c1ccncc1 [isoniazid, reference compound] | – | 0.0234 to 0.0468 (≈ 0.171 to 0.341 µM) | – | – | – | – | – | – | – | –
3 | C=C1CC[C@H]2C(C)(C)CCC[C@]2(C)[C@H]1/C=C/C(C)=O [Compound 2, (E)-15,16-bisnorlabda-8(17),11-dien-13-one] | Inactive | – | 21.7 µg/mL and 83.2 µM | 37 | 3.85 | 49.2 µg/mL and 189 µM | > 192 µM | – | – | melting point: 146 to 147 °C; Cytotoxicity (IC50) Vero Cell [5]: Undetectable ^2
4 | CO[C@H]1/C=C/O[C@@]2(C)Oc3c(C)c(O)c4c(O)c(c(/C=N/N5CCN(C)CC5)c(O)c4c3C2=O)NC(=O)/C(C)=C\C=C\[C@H](C)[C@H](O)[C@@H](C)[C@@H](O)[C@@H](C)[C@H](OC(C)=O)[C@@H]1C [rifampicine, reference compound] | – | 0.00312 to 0.025 (≈ 0.00379 to 0.0304 µM) | – | – | – | – | – | – | – | –
5 | C=C1CC[C@H]2C(C)(C)CCC[C@]2(C)[C@H]1/C=C/C1=CCOC1=O [Compound 4, villosin] | Inactive | – | 0.12 µg/mL and 400 nM | 4.1 | 4.86 | 8.5 µg/mL and 28.3 µM | > 166 µM | >416.7 | – | Cytotoxicity (IC50) Vero Cell [5]: Undetectable ^2
6 | C=C1CC[C@H]2C(C)(C)CCC[C@]2(C)[C@H]1CC=C(C=O)CC(=O)O (stereo in doubt) [Compound 9, zerumin A] | Inactive | – | 33.5 µg/mL and 105 µM | 47.4 | 3.83 | – | 49.5 µg/mL and 155 µM | 1.5 | 1.0 | Cytotoxicity (IC50) MCF7 [4]: Inactive
7 | C=C1CC[C@H]2C(C)(C)CCC[C@]2(C)[C@H]1C[C@@H](O)C1=CC(O)OC1=O (stereo partly drawn) [Compound 10, zerumin B] | Inactive | – | 6.14 µg/mL and 18.4 µM | 13.1 | 4.41 | 13.3 µg/mL and 39.7 µM | 24.7 µg/mL and 73.8 µM | 4.0 | 1.9 | Selectivity Index MCF7 [4]: 1.9
8 | C=C1CC[C@H]2C(C)(C)CCC[C@]2(C)[C@H]1C/C=C1\CC(O)OC1=O (stereo partly drawn) [Compound 8, coronarin D] | Inactive | – | 25.7 µg/mL and 80.8 µM | 40 | 3.90 | 16.2 µg/mL and 51 µM | 48.9 µg/mL and 154 µM | 1.9 | 1.2 | CC50 (A-549 cell line): 14 µM; CC50 (SK-N-SH cells): 32 µM; Selectivity Index MCF7 [4]: 3.0; IC50 V-79 cell (V-79 cell): 17.0 µg/mL (≈ 53.4 µM); LC50 (HeLa cells): 60.6 µM; IC50 NCI-H187 cell, previous reported (NCI-H187 cell): 9.8 µg/mL (≈ 30.8 µM); IC50 KB cell, previous reported (KB cell): 14.7 µg/mL (≈ 46.2 µM); CC50 (MCF-7 cells): 21.9 µM
9 | Cc1c2ccncc2c(C)c2c1[nH]c1ccccc12 [Ellipticine, reference compound] | – | – | 0.44 µg/mL and 1.79 µM | 0.302 | 5.91 | – | 1.34 µg/mL and 5.46 µM | 3.1 | 4.5 | –
10 | CC[C@@H](CO)NCCN[C@@H](CC)CO [ethambutol, reference compound] | – | 0.234 to 0.469 (≈ 1.15 to 2.3 µM) | – | – | – | – | – | – | – | –
11 | C=C1CC[C@H]2C(C)(C)CCC[C@]2(C)[C@H]1/C=C/C1=CC(=O)OC1O (stereo partly drawn) [Compound 7, 16-hydroxylabda-8(17),11,13-trien-15,16-olide] | – | 6.25 (≈ 19.8 µM) | 0.72 µg/mL and 2.18 µM | 0.92 | 5.56 | 2.89 µg/mL and 8.75 µM | 5.37 µg/mL and 16.2 µM | 7.5 | 5.9 | Cytotoxicity (IC50) KB [3]: 0.91 µg/mL; Selectivity Index MCF7 [4]: 1.9
12 | C=C1CC[C@H]2C(C)(C)CCC[C@]2(C)[C@H]1/C=C/C(=O)O [Compound 3, (E)-14,15,16-trinorlabda-8(17),11-dien-13-oic acid] | Inactive | – | 49.2 µg/mL and 188 µM | – | – | – | > 191 µM | – | – | Cytotoxicity (IC50) KB [3]: Inactive; Cytotoxicity (IC50) MCF7 [4]: Inactive; Cytotoxicity (IC50) Vero Cell [5]: Undetectable ^2
13 | COc1cccc2c1C(=O)c1c(O)c3c(c(O)c1C2=O)C[C@@](O)(C(=O)CO)C[C@@H]3O[C@H]1C[C@H](N)[C@H](O)[C@H](C)O1 [Doxorubicin, reference compound] | – | – | 0.053 µg/mL and 100 nM | 0.117 | 6.66 | 0.663 µg/mL and 1.22 µM | – | – | – | –
14 | [H]/N=C(/N)N[C@H]1[C@H](O)[C@@H](O)[C@H](O[C@@H]2O[C@@H](C)[C@](O)(C=O)[C@H]2O[C@@H]2O[C@@H](CO)[C@H](O)[C@@H](O)[C@@H]2NC)[C@@H](N/C(N)=N\[H])[C@@H]1O [streptomycin, reference compound] | – | 0.156 to 0.313 (≈ 0.268 to 0.538 µM) | – | – | – | – | – | – | – | –
15 | C=C1CC[C@H]2C(C)(C)CCC[C@]2(C)[C@H]1/C=C/c1ccoc1 [Compound 1, coronarin E] | – | 12.5 (≈ 43.9 µM) | 18.1 µg/mL and 63.5 µM | 9.67 | 4.47 | – | 25.4 µg/mL and 89.2 µM | 1.4 | 2.6 | Cytotoxicity (IC50) MCF7 [4]: Inactive; pIC50 (NCI-H187 cell): 4.30; IC50 P388 cells (P388 cells): 10.0 µg/mL (≈ 35.2 µM); IC50 B16 cells (B16 cells): 18.8 µg/mL (≈ 66.1 µM); IC50 SNU-1 cells (SNU-1 cells): 8.0 µg/mL (≈ 28.1 µM)
16 | C=C1CC[C@H]2C(C)(C)CCC[C@]2(C)[C@H]1C/C=C(/C=O)CC=O [Compound 5, (E)-labda-8(17),12-dien-15,16-dial] | Inactive | – | 11.2 µg/mL and 36.9 µM | 29.1 | 4.02 | 22.6 µg/mL and 74.6 µM | 22.5 µg/mL and 74.5 µM | 2.0 | 0.8 | Selectivity Index MCF7 [4]: 1.0; IC50 V-79 cell (V-79 cell): 18.5 µg/mL (≈ 61.2 µM)
17 | C=C1CCC2C(C)(C)CCC[C@]2(C)[C@H]1/C=C/C1=CC(OC)OC1=O (stereo partly drawn) [Compound 6, 15-methoxylabda-8(17),11,13-trien-15,16-olide] | Inactive | – | 0.9 µg/mL and 2.72 µM | 23.8 | 4.14 | 49.2 µg/mL and 149 µM | 45.6 µg/mL and 138 µM | 50.7 | 1.9 | Selectivity Index MCF7 [4]: 0.9
